The source made the active and inactive calls. No cut-off for these calls is given here. Peptide text beside a SMILES is read from it.
What was measured:
Homo sapiens [1] = species: Homo sapiens; experiment: Inhibition of FITC-labelled LANA (1 to 23 residues) binding to recombinant human H2A/H2B harboring acidic patch at by fluorescence polarization assay
HeLa = experiment: (§1) Inhibition of FITC-labelled LANA peptide (1 to 23 residues) binding to human HeLa mononucleosomes by fluorescence polarization assay
[2] = as §1
Homo sapiens [3] = species: Homo sapiens; experiment: Inhibition of FITC-labelled LANA (1 to 23 residues) binding to recombinant human H2A/H2B harboring acidic patch at 100 uM by fluorescence polarization assay relative to control

Molecule | inhibition (Homo sapiens [1]) | other results
Ac-PGVRLRSGRSTGA-NH2 | Active | 
CSCC[C@@H]1NC(=O)[C@H]([C@@H](C)O)NC(=O)[C@H](CO)NC(=O)[C@H](CCCNC(=N)N)NC(=O)CNC(=O)[C@H](CO)NC(=O)[C@H](CCCNC(=N)N)NC(=O)[C@H](CC(C)C)NC(=O)[C@H](CCCNC(=N)N)NC1=O (cyclo(GRSTMRLRS)) | Active | 
Ac-PGIRLRSGRSTGA-NH2 | Active | 
Ac-MRLRSGRST-NH2 | Active | 
Ac-PGFRLRSGRSTGA-NH2 | Active | 
Ac-GMRLRSGRSTG-NH2 | Active | inhibition (HeLa): Dose-dependent effect; IC50 [2]: 614 nM
Ac-PGMRLRSGRSKGA-NH2 | Active | 
Ac-PGLRLRSGRSTGA-NH2 | Active | 
Ac-PGMRLRSGRSHGA-NH2 | Active | 
CSCC[C@@H]1NC(=O)CNC(=O)CNC(=O)[C@H]([C@@H](C)O)NC(=O)[C@H](CO)NC(=O)[C@H](CCCNC(=N)N)NC(=O)CNC(=O)[C@H](CO)NC(=O)[C@H](CCCNC(=N)N)NC(=O)[C@H](CC(C)C)NC(=O)[C@H](CCCNC(=N)N)NC1=O (cyclo(GGMRLRSGRST)) |  | inhibition (HeLa): Dose-dependent effect; IC50 [2]: 204 nM; Ki [2]: 61 nM; inhibition (Homo sapiens [3]): 100%
Ac-PGMRLRSGRSTGA-NH2 |  | inhibition (Homo sapiens [3]): 40%
Ac-PGMRLRSGRSRGA-NH2 | Active | 
CSCC[C@@H]1NC(=O)CNC(=O)[C@@H]2CCCN2C(=O)[C@H](C)NC(=O)CNC(=O)[C@H]([C@@H](C)O)NC(=O)[C@H](CO)NC(=O)[C@H](CCCNC(=N)N)NC(=O)CNC(=O)[C@H](CO)NC(=O)[C@H](CCCNC(=N)N)NC(=O)[C@H](CC(C)C)NC(=O)[C@H](CCCNC(=N)N)NC1=O (cyclo(APGMRLRSGRSTG)) | Active | 
